Laboratory results from PubChem BioAssay (NCI).
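Assay format: 96-well plates, 48-hour exposure. GI50 = concentration required for 50% inhibition of growth. At the TGI there is no net growth.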

Tests used:
Assay in all cases: inhibition of tumour cell growth, NCI panel, 48 h
SF-295 CNS = tested on: SF-295 CNS
HCT-15 colon = tested on: HCT-15 colon
SK-MEL-2 melanoma = tested on: SK-MEL-2 melanoma
OVCAR-8 ovarian = tested on: OVCAR-8 ovarian
MALME-3M melanoma = tested on: MALME-3M melanoma
M14 melanoma = tested on: M14 melanoma
UACC-62 melanoma = tested on: UACC-62 melanoma
SK-OV-3 ovarian = tested on: SK-OV-3 ovarian
HL-60(TB) leukemia = tested on: HL-60(TB) leukemia
A549 NSCLC = tested on: A549 NSCLC
NCI-H226 lung = tested on: NCI-H226 lung
OVCAR-4 ovarian = tested on: OVCAR-4 ovarian
HOP-92 NSCLC = tested on: HOP-92 NSCLC
SK-MEL-28 melanoma = tested on: SK-MEL-28 melanoma
HCC-2998 colon = tested on: HCC-2998 colon
MDA-MB-435 = tested on: MDA-MB-435
DU-145 prostate = tested on: DU-145 prostate
U251 CNS = tested on: U251 CNS
SN12C renal = tested on: SN12C renal
SF-539 CNS = tested on: SF-539 CNS
TK-10 renal = tested on: TK-10 renal
SF-268 CNS = tested on: SF-268 CNS
CCRF-CEM leukemia = tested on: CCRF-CEM leukemia
UO-31 renal = tested on: UO-31 renal
CAKI-1 renal = tested on: CAKI-1 renal
OVCAR-3 ovarian = tested on: OVCAR-3 ovarian
IGROV1 ovarian = tested on: IGROV1 ovarian
RXF 393 renal = tested on: RXF 393 renal
HCT-116 colon = tested on: HCT-116 colon
MCF7 breast = tested on: MCF7 breast
HT29 colon = tested on: HT29 colon
786-0 renal = tested on: 786-0 renal
SNB-19 CNS = tested on: SNB-19 CNS
SK-MEL-5 melanoma = tested on: SK-MEL-5 melanoma
SR leukemia = tested on: SR leukemia
RPMI-8226 leukemia = tested on: RPMI-8226 leukemia
COLO 205 colon = tested on: COLO 205 colon
KM12 colon = tested on: KM12 colon
SW-620 colon = tested on: SW-620 colon
NCI-H522 lung = tested on: NCI-H522 lung
A498 renal = tested on: A498 renal
EKVX NSCLC = tested on: EKVX NSCLC
OVCAR-5 ovarian = tested on: OVCAR-5 ovarian
MOLT-4 leukemia = tested on: MOLT-4 leukemia
PC-3 prostate = tested on: PC-3 prostate
NCI-H460 lung = tested on: NCI-H460 lung
BT-549 breast = tested on: BT-549 breast
SNB-75 CNS = tested on: SNB-75 CNS
UACC-257 melanoma = tested on: UACC-257 melanoma
NCI/ADR-RES ovarian = tested on: NCI/ADR-RES ovarian
NCI-H23 lung = tested on: NCI-H23 lung
HOP-62 NSCLC = tested on: HOP-62 NSCLC
ACHN renal = tested on: ACHN renal
LOX IMVI melanoma = tested on: LOX IMVI melanoma
K-562 leukemia = tested on: K-562 leukemia
MDA-MB-231 breast = tested on: MDA-MB-231 breast

SMILES: Cn1ccc(=O)c2c(O)c3ccccc3c(O)c21
- GI50 (SF-295 CNS): 64.3 µM
- TGI (SF-295 CNS): > 100 µM
- GI50 (HCT-15 colon): > 66.1 µM
- TGI (HCT-15 colon): > 100 µM
- GI50 (SK-MEL-2 melanoma): > 100 µM
- TGI (SK-MEL-2 melanoma): > 100 µM
- GI50 (OVCAR-8 ovarian): > 58.6 µM
- TGI (OVCAR-8 ovarian): > 100 µM
- GI50 (MALME-3M melanoma): > 100 µM
- TGI (MALME-3M melanoma): > 100 µM
- GI50 (M14 melanoma): 97.5 µM
- TGI (M14 melanoma): > 100 µM
- GI50 (UACC-62 melanoma): > 88.6 µM
- TGI (UACC-62 melanoma): > 100 µM
- GI50 (SK-OV-3 ovarian): > 94.2 µM
- TGI (SK-OV-3 ovarian): > 100 µM
- GI50 (HL-60(TB) leukemia): > 100 µM
- TGI (HL-60(TB) leukemia): > 100 µM
- GI50 (A549 NSCLC): > 93.1 µM
- TGI (A549 NSCLC): > 100 µM
- GI50 (NCI-H226 lung): > 44.6 µM
- TGI (NCI-H226 lung): > 100 µM
- GI50 (OVCAR-4 ovarian): > 100 µM
- TGI (OVCAR-4 ovarian): > 100 µM
- GI50 (HOP-92 NSCLC): > 100 µM
- TGI (HOP-92 NSCLC): > 100 µM
- GI50 (SK-MEL-28 melanoma): > 100 µM
- TGI (SK-MEL-28 melanoma): > 100 µM
- GI50 (HCC-2998 colon): 20.3 µM
- TGI (HCC-2998 colon): > 100 µM
- GI50 (MDA-MB-435): > 100 µM
- TGI (MDA-MB-435): > 100 µM
- GI50 (DU-145 prostate): > 100 µM
- TGI (DU-145 prostate): > 100 µM
- GI50 (U251 CNS): > 100 µM
- TGI (U251 CNS): > 100 µM
- GI50 (SN12C renal): 78.1 µM
- TGI (SN12C renal): > 100 µM
- GI50 (SF-539 CNS): > 82.3 µM
- TGI (SF-539 CNS): > 100 µM
- GI50 (TK-10 renal): > 94.9 µM
- TGI (TK-10 renal): > 100 µM
- GI50 (SF-268 CNS): > 100 µM
- TGI (SF-268 CNS): > 100 µM
- TGI (CCRF-CEM leukemia): > 100 µM
- GI50 (UO-31 renal): > 100 µM
- TGI (UO-31 renal): > 100 µM
- GI50 (CAKI-1 renal): 57 µM
- TGI (CAKI-1 renal): > 100 µM
- GI50 (OVCAR-3 ovarian): > 100 µM
- TGI (OVCAR-3 ovarian): > 100 µM
- GI50 (IGROV1 ovarian): > 100 µM
- TGI (IGROV1 ovarian): > 100 µM
- GI50 (RXF 393 renal): > 100 µM
- TGI (RXF 393 renal): > 100 µM
- GI50 (HCT-116 colon): 42.2 µM
- TGI (HCT-116 colon): > 100 µM
- GI50 (MCF7 breast): > 100 µM
- TGI (MCF7 breast): > 100 µM
- GI50 (HT29 colon): 99.9 µM
- TGI (HT29 colon): > 100 µM
- GI50 (786-0 renal): > 100 µM
- TGI (786-0 renal): > 100 µM
- GI50 (SNB-19 CNS): > 40.2 µM
- TGI (SNB-19 CNS): > 100 µM
- GI50 (SK-MEL-5 melanoma): 18.3 µM
- TGI (SK-MEL-5 melanoma): > 52.4 µM
- GI50 (SR leukemia): 44.5 µM
- TGI (SR leukemia): > 100 µM
- GI50 (RPMI-8226 leukemia): 34.5 µM
- TGI (RPMI-8226 leukemia): > 100 µM
- GI50 (COLO 205 colon): 56.9 µM
- TGI (COLO 205 colon): > 100 µM
- GI50 (KM12 colon): > 70.1 µM
- TGI (KM12 colon): > 100 µM
- GI50 (SW-620 colon): 59.9 µM
- TGI (SW-620 colon): > 100 µM
- GI50 (NCI-H522 lung): > 94 µM
- TGI (NCI-H522 lung): > 100 µM
- GI50 (A498 renal): 20.2 µM
- TGI (A498 renal): > 100 µM
- GI50 (EKVX NSCLC): > 100 µM
- TGI (EKVX NSCLC): > 100 µM
- GI50 (OVCAR-5 ovarian): > 100 µM
- TGI (OVCAR-5 ovarian): > 100 µM
- GI50 (MOLT-4 leukemia): 80.9 µM
- TGI (MOLT-4 leukemia): > 100 µM
- GI50 (PC-3 prostate): > 26.6 µM
- TGI (PC-3 prostate): > 100 µM
- GI50 (NCI-H460 lung): > 69 µM
- TGI (NCI-H460 lung): > 100 µM
- GI50 (BT-549 breast): > 100 µM
- TGI (BT-549 breast): > 100 µM
- GI50 (SNB-75 CNS): > 100 µM
- TGI (SNB-75 CNS): > 100 µM
- GI50 (UACC-257 melanoma): > 100 µM
- TGI (UACC-257 melanoma): > 100 µM
- GI50 (NCI/ADR-RES ovarian): > 100 µM
- TGI (NCI/ADR-RES ovarian): > 100 µM
- GI50 (NCI-H23 lung): > 100 µM
- TGI (NCI-H23 lung): > 100 µM
- GI50 (HOP-62 NSCLC): 64.5 µM
- TGI (HOP-62 NSCLC): > 100 µM
- GI50 (ACHN renal): 35.3 µM
- TGI (ACHN renal): > 100 µM
- GI50 (LOX IMVI melanoma): 52.7 µM
- TGI (LOX IMVI melanoma): > 100 µM
- GI50 (K-562 leukemia): > 100 µM
- TGI (K-562 leukemia): > 100 µM
- GI50 (MDA-MB-231 breast): 99.1 µM
- TGI (MDA-MB-231 breast): > 100 µM
